Data: paper PMC8288134, “Synthesis, potential antitumor activity, cell cycle analysis, and multitarget mechanisms of novel hydrazones incorporating a 4-methylsulfonylbenzene scaffold: a molecular docking study” (Journal of Enzyme Inhibition and Medicinal Chemistry, 2021)

Assays:
[1] = test system: CNS cancer tumour cell lines; assay: NCI antitumor screen, subpanel; type: cell-based
[2] = test system: ovarian cancer tumour cell lines; assay: NCI antitumor screen, subpanel; type: cell-based
[3] = test system: breast cancer tumour cell lines; assay: NCI antitumor screen, subpanel; type: cell-based
[4] = test system: melanoma tumour cell lines; assay: NCI antitumor screen, subpanel; type: cell-based
[5] = test system: leukaemia tumour cell lines; assay: NCI antitumor screen, subpanel; type: cell-based
[6] = test system: HOP-92; assay: NCI antitumor screen (SRB); type: cell-based; settings: Homo sapiens, five concentrations 0.01-100 µM
[7] = test system: renal cancer tumour cell lines; assay: NCI antitumor screen, subpanel; type: cell-based
[8] = test system: NSC lung cancer tumour cell lines; assay: NCI antitumor screen, subpanel; type: cell-based
[9] = test system: colon cancer tumour cell lines; assay: NCI antitumor screen, subpanel; type: cell-based
[10] = test system: prostate cancer tumour cell lines; assay: NCI antitumor screen, subpanel; type: cell-based
[11] = test system: PRMI-8226; parameters: method as in https://dtp.cancer.gov/dtpstandard/dwindex/index.jsp; settings: reference drugs, ref https://dtp.cancer.gov/dtpstandard/dwindex/index.jsp; cited from earlier work
[12] = Homo sapiens, five concentrations
[13] = Homo sapiens, read-out: LC50 (subpanel average)

In the case of `CCN(CC)c1ccc(/C=N/NC(=O)c2ccc(S(C)(=O)=O)cc2)c(O)c1` [Compound 20], the “TGI (subpanel average)” value [1] is reported as 71.7 µM, the GI50 [1, 12] is reported as 220 nM and the CC50 [1, 13] is reported as > 100 µM. For the same compound, the “TGI (subpanel average)” value [2] was 70.0 µM, the GI50 [2, 12] was 1100 nM and the CC50 [2, 13] was > 100 µM. The “TGI (subpanel average)” value [3] was 69.5 µM, the GI50 [3, 12] was 2200 nM and the CC50 [3, 13] was > 100 µM. For the same compound, the “TGI (subpanel average)” value [4] was 45.6 µM, the GI50 [4, 12] was 310 nM and the CC50 [4, 13] was > 100 µM. The “TGI (subpanel average)” value [5] was 83.5 µM, the GI50 [5, 12] was 230 nM and the CC50 [5, 13] was > 100 µM. The GI50 [6] was 491 nM, the “TGI (subpanel average)” value [7] was 80.3 µM and the GI50 [7, 12] was 1400 nM. The CC50 [7, 13] was > 100 µM, the “TGI (subpanel average)” value [8] was 65.0 µM and the GI50 [8, 12] was 260 nM. The CC50 [8, 13] was > 100 µM, the “TGI (subpanel average)” value [9] was “c (Compounds showed values ≥ 100 µM)” and the GI50 [9, 12] was 270 nM. The CC50 [9, 13] was > 100 µM, the “TGI (subpanel average)” value [10] was “c (Compounds showed values ≥ 100 µM)” and the GI50 [10, 12] was 230 nM. The CC50 [10, 13] was > 100 µM.

For `C#Cc1cccc(Nc2ncnc3cc(OCCOC)c(OCCOC)cc23)c1` [Erlotinib, erlotinib], the GI50 [11] is given as 25.1 µM.

In the case of `Cc1ccc(-c2cc(C(F)(F)F)nn2-c2ccc(S(N)(=O)=O)cc2)cc1` [Celecoxib, celecoxib], the GI50 [11] is listed as 3.98 µM.

For `CS(=O)(=O)c1ccc(C(=O)Nc2ccc(Cl)c(-c3ccccn3)c2)c(Cl)c1` [Vismodegib, vismodegib], the GI50 [11] is listed as 31.6 µM.
